According to the supplement of paper PMC11451515:

Test system: NOMO1
Experiment: cell viability relative to DMSO control; higher = less cytotoxic
Conditions: 48 h
Summary of the method: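 In 1536-well plates, 5 μl of leukemia cells were seeded per well: 500 cells/well for NOMO1 or SEM and 1000 cells/well for P12-Ichikawa. Each line had first been adapted for at least four passages in each medium. Library compounds in DMSO were pin-dosed at 11 threefold concentrations between 47 μM and 0.79 nM, and CellTiter-Glo One luminescence was read after 48 h at 37°C. Viability is a per-plate percentage relative to DMSO wells, with cell-free wells as background.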

[1] = RPMI 5 mM glucose + 10% FBS, 0.000781 µM
[2] = RPMI 5 mM glucose + 10% FBS, 0.00234 µM
[3] = RPMI 5 mM glucose + 10% FBS, 0.00702 µM
[4] = RPMI 5 mM glucose + 10% FBS, 0.0211 µM
[5] = RPMI 5 mM glucose + 10% FBS, 0.0632 µM
[6] = RPMI 5 mM glucose + 10% FBS, 0.19 µM
[7] = RPMI 5 mM glucose + 10% FBS, 0.569 µM
[8] = RPMI 5 mM glucose + 10% FBS, 1.71 µM
[9] = RPMI 5 mM glucose + 10% FBS, 5.12 µM
[10] = RPMI 5 mM glucose + 10% FBS, 15.4 µM
[11] = RPMI 5 mM glucose + 10% FBS, 46.1 µM
[12] = HPLM + 10% dialyzed FBS, 0.000781 µM
[13] = HPLM + 10% dialyzed FBS, 0.00234 µM
[14] = HPLM + 10% dialyzed FBS, 0.00702 µM
[15] = HPLM + 10% dialyzed FBS, 0.0211 µM
[16] = HPLM + 10% dialyzed FBS, 0.0632 µM
[17] = HPLM + 10% dialyzed FBS, 0.19 µM
[18] = HPLM + 10% dialyzed FBS, 0.569 µM
[19] = HPLM + 10% dialyzed FBS, 1.71 µM
[20] = HPLM + 10% dialyzed FBS, 5.12 µM
[21] = HPLM + 10% dialyzed FBS, 15.4 µM
[22] = HPLM + 10% dialyzed FBS, 46.1 µM
[23] = RPMI 5 mM glucose + 10% dialyzed FBS, 0.000781 µM
[24] = RPMI 5 mM glucose + 10% dialyzed FBS, 0.00234 µM
[25] = RPMI 5 mM glucose + 10% dialyzed FBS, 0.00702 µM
[26] = RPMI 5 mM glucose + 10% dialyzed FBS, 0.0211 µM
[27] = RPMI 5 mM glucose + 10% dialyzed FBS, 0.0632 µM
[28] = RPMI 5 mM glucose + 10% dialyzed FBS, 0.19 µM
[29] = RPMI 5 mM glucose + 10% dialyzed FBS, 0.569 µM
[30] = RPMI 5 mM glucose + 10% dialyzed FBS, 1.71 µM
[31] = RPMI 5 mM glucose + 10% dialyzed FBS, 5.12 µM
[32] = RPMI 5 mM glucose + 10% dialyzed FBS, 15.4 µM
[33] = RPMI 5 mM glucose + 10% dialyzed FBS, 46.1 µM

Structure (SMILES) | cell viability [1] [%] | cell viability [2] [%] | cell viability [3] [%] | cell viability [4] [%] | cell viability [5] [%] | cell viability [6] [%] | cell viability [7] [%] | cell viability [8] [%] | cell viability [9] [%] | cell viability [10] [%] | cell viability [11] [%] | cell viability [12] [%] | cell viability [13] [%] | cell viability [14] [%] | cell viability [15] [%] | cell viability [16] [%] | cell viability [17] [%] | cell viability [18] [%] | cell viability [19] [%] | cell viability [20] [%] | cell viability [21] [%] | cell viability [22] [%] | cell viability [23] [%] | cell viability [24] [%] | cell viability [25] [%] | cell viability [26] [%] | cell viability [27] [%] | cell viability [28] [%] | cell viability [29] [%] | cell viability [30] [%] | cell viability [31] [%] | cell viability [32] [%] | cell viability [33] [%]
N[C@@H](Cc1ccc(N(CCCl)CCCl)cc1)C(=O)O | 124 | 130 | 123 | 142 | 150 | 140 | 137 | 137 | 124 | 44.8 | 23.8 |  |  |  |  |  |  |  |  |  |  |  |  |  |  |  |  |  |  |  |  |  | 
Oc1ccc(-c2nc(-c3ccncc3)c(-c3ccc(F)cc3)[nH]2)cc1 | 100 | 106 | 106 | 112 | 116 | 135 | 150 | 125 | 118 | 18.4 | 1.54 | 99.7 | 113 | 122 | 117 | 125 | 135 | 147 | 121 | 19.1 | 2.63 | 1.72 | 105 | 124 | 126 | 110 | 122 | 133 | 136 | 128 | 130 | 36.8 | 1.72
O=C1N\N=C(\C[C@@H]2CCN(C2)C(=O)C3CC3)N1C4=CC=C(C=C4)C5=CC=C6OC=CC6=C5 | 78.2 | 77.4 | 87.3 | 77.6 | 90 | 79.9 | 95.3 | 82.3 | 85.6 | 81.3 | 80.5 | 99.4 | 89 | 90.1 | 94.5 | 94.7 | 99 | 92 | 109 | 94.4 | 73.9 | 92.2 | 85.5 | 86.8 | 75.5 | 82.5 | 80.5 | 81.6 | 85.4 | 82.3 | 86 | 75.5 | 87.7
COC(=O)Nc1nc2cc(Sc3ccccc3)ccc2[nH]1 | 114 | 122 | 124 | 113 | 120 | 107 | 115 | 111 | 22.8 | 42.9 | 36.8 |  |  |  |  |  |  |  |  |  |  |  | 122 | 111 | 122 | 115 | 140 | 119 | 119 | 115 | 32.6 | 35.1 | 29.7
CN1\C(=C(O)/C2=C(C=C(Cl)S2)[S+]1([O-])=O)C(=O)NC3=NC=CC=C3 | 109 | 108 | 110 | 105 | 119 | 128 | 126 | 109 | 108 | 121 | 111 | 138 | 112 | 116 | 125 | 119 | 111 | 132 | 103 | 125 | 123 | 108 | 115 | 101 | 126 | 120 | 131 | 126 | 123 | 118 | 112 | 116 | 114
OC[C@H]1O[C@H](C[C@@H]1O)N2\C=C(\I)C(=O)NC2=O | 112 | 120 | 110 | 113 | 120 | 116 | 127 | 119 | 129 | 115 | 88.6 | 107 | 118 | 105 | 126 | 116 | 113 | 114 | 125 | 105 | 91.3 | 79.2 | 103 | 118 | 114 | 117 | 132 | 117 | 133 | 104 | 97.1 | 98.5 | 86.2
CN(C)[C@H]\1[C@@H]2[C@@H](O)[C@H]3\C(=C(O)/[C@]2(O)C(=O)\C(=C1O)C(N)=O)C(=O)C4=C(C=CC=C4O)[C@@]3(C)O | 112 | 131 | 120 | 135 | 123 | 126 | 122 | 117 | 113 | 119 | 37.1 | 134 | 117 | 117 | 138 | 127 | 131 | 130 | 108 | 113 | 104 | 30.7 | 117 | 128 | 117 | 122 | 119 | 128 | 123 | 136 | 105 | 104 | 30.1
N#C[C@@H]1C[C@@H]2C[C@@H]2N1C(=O)[C@@H](N)C12CC3CC(CC(O)(C3)C1)C2 | 120 | 109 | 118 | 124 | 109 | 116 | 111 | 110 | 113 | 112 | 67.3 | 139 | 118 | 124 | 134 | 129 | 129 | 127 | 106 | 96.6 | 32.2 | 5.88 | 122 | 125 | 106 | 125 | 131 | 123 | 132 | 122 | 118 | 97.9 | 44.6
